The results in this text go back to article PMC12111648, “New Dimethoxyaryl-Sesquiterpene Derivatives with Cytotoxic Activity Against MCF-7 Breast Cancer Cells: From Synthesis to Topoisomerase I/II Inhibition and Cell Death Mechanism Studies” (International Journal of Molecular Sciences, 2025).

Type in all cases: cell-based, human
In data set [1] the test system is MCF-7 cells. Kind of data set: Intracellular ROS generation (DCFH2-DA, flow cytometry). The conditions noted are these: MCF-7, compounds at respective IC50, 24 h, versus control. The procedure:
An increase in intracellular ROS may be one of the factors that contribute to the cytotoxicity of certain compounds in cancer cell lines. In fact, ROS and mitochondrial damage are often associated with the induction of cell death. […] DCF fluorescence was then measured by flow cytometry. The difference in the percentage of DCF-positive cells between treated and control cells was used to indicate an increase in intracellular ROS, as shown in Figure 4.
Reactive oxygen species (ROS) production was measured using flow cytometry. Cells were treated with compounds (each with respective IC50 values) for 24 h, with untreated cells serving as the negative control and cells treated with 1 µM daunorubicin as the positive control. Following the treatment, intracellular ROS levels were visualized after incubation with 2′,7′-dichlorodihydro-fluorescein diacetate (DCFH2-DA) at a final concentration of 10 μM for the last 30 min of the treatment period. After incubation, the cells were washed with PBS, trypsinized, and centrifuged, and the resulting pellet was resuspended in PBS and immediately examined by flow cytometry.
Figure 4 The effect of the compound’s treatment on intracellular ROS generation. Cells were treated with compounds (respective IC50 values for each compound for 24 h), and intracellular ROS levels were determined in the human cancer cell line MCF-7 by flow cytometry using dichloro-fluorescein diacetate (DCFH2-DA). * p < 0.05 versus control cells (Ctrl). The data represent the means ± S.D. of at least three experiments with triplicate samples.
For orientation: A flow cytometer gives signals particle by particle.

Data set [2] concerns MCF-7 cells. The experiment in a line: Mitochondrial membrane potential (rhodamine 123, flow cytometry). The following applies: MCF-7, compounds at respective IC50, 24 h. The method, then: To determine whether the toxic effects of selected sesquiterpenes (10c, 11c, 12c, 13c, and 14c) are due to the production of ROS and subsequent apoptosis, the mitochondrial membrane potential was measured. With this aim, a protocol using rhodamine 123 staining and flow cytometry was established to study the effect of the selected compounds [40]. The accumulation of rhodamine 123 in mitochondria is associated with the maintenance of the electrochemical gradient in mitochondria. Daunorubicin was used as a positive control (C+). The results are presented as the percentage of cells with increased mitochondrial membrane permeability.
Rhodamine 123 (Rho123), a positively charged dye that reacts to voltage changes and enters the mitochondria, was utilized to detect modifications in the mitochondrial membrane potential. The cells were exposed to specific compounds (IC50 values for each compound) for 24 h. Control cells that had not been treated were used as negative control, while cells treated with daunorubicin at a concentration of 1 µM served as the positive control. Following this, the cells were incubated with Rho123 (at a concentration of 1 µM) in darkness for an hour at 37 °C. Afterward, the medium was taken out, and the cells were washed with PBS. The cells were then dissociated using trypsin and collected through centrifugation for 10 min at 1500×g. The supernatant was thrown away, and the cell pellets were resuspended in PBS and analyzed using flow cytometry with the FL1 filter. The results are shown as the percentage of Rho123-stained cells.
Figure 5 The effect of the compound’s treatment on mitochondrial membrane potential. […] The data represent the means ± S.D. of at least three experiments with triplicate samples.

Data set [3] has as its system caspases-3/7 in MCF-7 cells. Kind of data set: Caspase-Glo 3/7 assay. The following applies: MCF-7, 50 μM, 24 h, versus control. The procedure:
Since ROS levels were increased in the MCF-7 cancer cell line in response to the compounds, it is important to determine whether this effect is associated with the onset of apoptotic cell death. […] Cells were treated with the selected compounds at 50 μM for 24 h, incubated in situ with the Caspase-Glo 3/7 marker assay, and then analyzed in a luminometer.
The activity of caspase 3/7 in MCF-7 cells treated with the compounds was determined using a Caspase-Glo-3/7 Assay kit from Promega (UK). This assay is a homogenous and luminescent method that measures the activity of caspase-3 and -7, which are essential for apoptosis. MCF-7 cells (1 × 10^4 cells per well) were seeded in a 96-well plate and incubated overnight. The cells were then treated for 24 h with the compounds (50 µM) and a blank as a control. After treatment, the Caspase-Glo® 3/7 reagent was prepared according to the manufacturer’s instructions. Specifically, 100 μL of the reagent was added to 100 μL of culture medium containing the treated cells in each well, and the mixture was incubated for 1 h at room temperature in the dark. Luminescence was then measured using a luminometer (Berthold Sirius Single Tube Luminometer). The fold change in caspase activity was calculated by expressing the average luminescence of each treatment as a fold change with respect to the average luminescence of the negative control.
Figure 6 The effect of the compounds on caspases-3/7 activity in cells from the human breast cancer cell line MCF-7. Caspases-3/7 activity was determined in MCF-7 cells following treatment with the compounds (50 μM) for 24 h. The data are reported as the ratio of activity in treated cells vs. the control (1% ethanol), which were arbitrarily assigned a unitary value. * p < 0.05 versus control cells (Ctrl). The data are reported as the mean values ± S.D. of three different experiments with samples in triplicate.

“Also recorded” adds a separate entry of the source.

Regarding `COc1ccc(/C=C2\C(C)=CCC3C(C)(C)CCC[C@]23C)cc1OC` (stereo partly drawn) [Compound 13c, (4aS)-5-((E)-3,4-Dimethoxybenzylidene)-1,1,4a,6-tetramethyl-1,2,3,4,4a,5,8,8a-octahydronaphthalene], the “intracellular ROS levels (DCF fluorescence)” value with MCF-7 cells [1] is “significantly increased”. For the same compound, the mitochondrial membrane permeability entry in the data set with MCF-7 cells [2] is “did not increase”. The caspases-3/7 activity result in data set [3] is “considerably enhanced”.
Turning to `COc1cc2c(cc1OC)[C@]1(C)CCC3C(C)(C)CCC[C@]3(C)C1=C2` (stereo partly drawn) [Compound 14c, (6aR,11bS)-8,9-Dimethoxy-4,4,6a,11b-tetramethyl-2,3,4,4a,5,6,6a,11b-octahydro-1H-benzo[a]fluorene], the “intracellular ROS levels (DCF fluorescence)” value with MCF-7 cells [1] is recorded as “induced oxidative stress; also recorded: significantly increased”. Also, in the data set with MCF-7 cells [2], the mitochondrial membrane permeability result was “did not increase”. The caspases-3/7 activity entry in data set [3] is on record as “activated caspases-3/7; also recorded: considerably enhanced”.
